Experimental data as given in patent US8455468B2, “Methods for the treatment of a traumatic central nervous system injury” (priority 2005, dated 2013).

Experiments:
[1] = clinical; conditions: human, in vivo
Procedure: Multiple blood samples were obtained from 11 female and 21 male trauma patients receiving PG and 1 female and 3 male patients receiving placebo infusions for 72 h. Values for CSS, CL, t1/2 and Vd were obtained using AUC(0-72) and post-infusion blood samples.
This study was approved by the Institutional Review Board of Emory University, the Drug Safety Monitoring Board (NINDS) and the FDA (IND #58,986). After obtaining informed consent, thirty-six patients meeting the inclusion criteria outlined as follows were studied. […] Inclusion criteria required that each patient be ≧18 years old, have a closed head injury arising from blunt trauma, have a moderate to severe brain injury (Index Glasgow Coma Score (GCS) 4-12) and arrive in the Emergency Department and obtain informed consent (from next-of-kin) in less than 11 hours post injury.
Aliquots of each solution were assayed for final concentration and sterility. […] Each kit contained six vials. […] The placebo kits were also formulated with 95% ethanol. Because of the alcohol concentration, doses of study drug were mixed with Intralipid® immediately prior to infusion. Each infusion dose was administered over 12 hours and repeated every 12 hours for a total of 72 hours. […] The dosing worksheet was also used to calculate the volume of study medication to be diluted in Intralipid® for each of the remaining infusion reservoirs at a standard rate of 10 cc/hr.
Nine (5 ml) samples were obtained at the following times during the infusion: pre-infusion (0), 4, 6, 12, 24, 36, 48, 60, and 72 hours. An additional five samples were obtained following cessation of infusion at: 0.5, 1, 2, 4 and 8 hours. Samples were allowed to clot, and then centrifuged. After that, the serum was removed and stored at −70° C. until analyzed.
The primary pharmacokinetic parameter, CL, was estimated as the ratio of the dose to area under the serum concentration-time curve (AUC). AUC's were calculated using the linear trapezoidal rule (Veng-Pedersen (1989) Clin Pharmacokinet, 17(6):424-40). The elimination phase rate constant, ke, was calculated from the serum concentration-time data following the termination of the infusion using iterative non-linear regression (WinNonlin®, Pharsight Corporation, Mountain View, Calif.). Volume of Distribution was estimated as the ratio of CL and ke. Css was estimated as the ratio of Dose and CL. Actual Css was defined as the concentration achieved when the slope of the serum concentration-time curve for three or more consecutive samples was not different from zero.
Predicted Css concentrations were calculated as the ratio of the infusion rate/clearance. Differences between predicted and measured Css were made using a ‘t’ test for repeated measures. A Bland-Altman analysis was conducted to assess the magnitude of any bias associated with this approach (Bland and Altman (1986) Lancet, 1(8476):307-10). Pharmacokinetic parameter comparisons between male and female were accomplished using a ‘t’ test for independent means. A p value of less than 0.05 was considered the minimum level for rejection of the null hypothesis.

[2] = Stability of progesterone solutions (HPLC-UV); assay type: physicochemical
Text: For all stability testing, the method of […], et al. was used with minor modifications ([…], et al. (1999) Journal of Pharmaceutical & Biomedical Analysis, 19(5):803-8). The method was originally validated to assess the stability of medroxyprogesterone acetate and estradiol valerate tablets. It is an isocratic HPLC-UV method utilizing external standardization. A 5 micron, 4.6×250 mm BDS-Hypersil C-18 column (Keystone Scientific) was used and the analyses were completed on an Agilent 1100 model HPLC system with photodiode array detector. The mobile phase consisted of 40% 0.07M ammonium acetate buffer, pH 7.2 and 60% acetonitrile. Detection was at […]. […] Reproducibility as assessed by 10 injections of the same preparation on multiple different days was always less that 10%. […] A five point standard curve was run with each analysis.

[3] = Solubility of progesterone in carrier; assay type: physicochemical
[4] = system: moderate to severe TBI; test: Pilot phase II randomized double-blind trial of progesterone for traumatic brain injury, preliminary evaluation (Example 2); assay type: in vivo, human
Procedure: The administration protocol was carried out was described above in Example 1.
To determine if a therapeutic response was achieved, the following endpoints were monitored: • ICP reduction determined by calculating “therapeutic intensity level” (ICP-TIL); • duration of coma (injury to awaking); • mortality one-month post injury; • neurological outcome 1 month and 1 year post-injury, as determined by Glasgow outcome scale (GOS), Disability rating scale (DRS) and Galveston orientation and amnesia test (GOAT).
The administration protocol and pharmaceutical composition administered are described in detail in Example 1. Follow up regarding condition occurred at 30 days and 1 year.

[5] = system: acute TBI
Procedure: This phase II, randomized, double blind, placebo-controlled clinical trial was conducted at an urban, level I trauma center. 100 adults presenting within 11 hours of a blunt TBI with a Glasgow Coma Scale score of 4-12 were enrolled with proxy consent. […] Blinded observers closely monitored patients for the occurrence of adverse events, and initial functional outcomes were assessed 30 days post-injury. The primary safety outcome was difference in adverse event rates, including mortality. The primary measure of activity was dichotomized Glasgow outcome scale extended (GOSE) 30 days post injury.
We also hoped to detect signals of activity.
According to the U.S. Food and Drug Administration, an “adverse event” is any undesirable medical event occurring to a subject in a clinical trial, whether or not related to the study drug. This includes events not seen at baseline, or worsened if present at baseline. “Serious adverse events” are defined as death, immediate risk of death, or suspicion that use or continued use would result in the patient's death, prolongation of existing hospitalization, persistent or significant disability/incapacity, or a congenital anomaly/birth defect.
These included any thromboembolic event (deep vein thrombosis, thrombophlebitis, ischemic myocardial infarction, pulmonary embolism, stroke or transient ischemic attack), elevated liver enzymes, temperature elevation, allergic reactions, and hyperglycemia. […] An independent internal safety monitor made the determination if an adverse event was associated with study treatment. Both the FDA and an independent NIH-appointed data safety monitoring board independently reviewed these determinations.
Interventions: Following proxy consent, patients were placed in one of 8 clinical subgroups defined by gender (male versus female), race (black versus all others) and TBI severity (moderate versus severe). […] This asymmetric approach was adopted at the request of our NIH-appointed DSMB to maximize the number of patients receiving study drug while maintaining blinding.
Whenever a patient was enrolled, the next kit in sequence for that subgroup was used to prepare infusions. […] The remaining vials were used to prepare 5 subsequent 12-hour infusions at the same standard rate of 10 mls/hour for a total of 3 days of treatment. Details of drug monitoring are reported elsewhere (Wright et al. (2005) J Clin Pharmacol 45(6):640-648).
Methods of Measurement: To assess drug safety, study personnel rounded daily to document the occurrence of adverse events (AEs) or serious adverse events (SAES). Hourly vital signs (blood pressure, heart rate, respiratory rate, temperature, and pulse oximetry), intracranial pressure readings, and other parameters (mean arterial pressure, cerebral perfusion pressure, and fluid balance), were abstracted from each patient's chart. Laboratory values were obtained from the hospital's information system, and concomitant medications and interventions were noted.
Whenever an SAE occurred, an independent board-certified neurosurgeon assessed its potential relationship to study treatment using pre-defined scale. SAEs were reported within 24 hours to the Institutional Review Board (IRB), our NIH-appointed Data Safety Monitoring Board (DSMB), and the U.S. Food and Drug Administration. All other adverse events were reported to on a weekly basis.
Primary Data Analysis—Treatment and placebo groups were compared with respect to a variety of demographic, historical and prehospital characteristics to ensure that important independent predictors of outcome were equally distributed. Next, the groups were compared with respect to rates of adverse and serious adverse events, using Fisher's exact test.

[6] = system: acute TBI; test: Phase II ProTECT trial: physiological parameters during infusion; assay type: in vivo, human
Text: Primary Data Analysis—Treatment and placebo groups were compared with respect to a variety of demographic, historical and prehospital characteristics to ensure that important independent predictors of outcome were equally distributed. Next, the groups were compared with respect to rates of adverse and serious adverse events, using Fisher's exact test. Generalized linear model analysis using a negative binomial distribution was used to compare rates of events that occurred multiple times per patient within the first 30 days (McCullagh and Nelder (1989) Generalized Linear Models (2nd ed, Chapman & Hill)). Then, group specific differences in 30-day outcomes. Fisher's exact test was used to analyze GOSE scores dichotomized into “good or moderate recovery” versus all other levels. Wilcoxon's rank sum test was used to compare group specific DRS scores. Mean and median durations of coma and post-traumatic amnesia were compared using student's t-test. All analyses were stratified on an a priori basis by brain injury severity (iGCS 4-8 (severe) versus iGCS 9-12 (moderate)). Longitudinal mixed effects models were used to analyze ICP-TIL as well as other hourly or daily clinical measurements from enrollment through treatment day 4.

[7] = system: acute TBI; test: Phase II ProTECT trial: outcome variables 30 days post injury; assay type: in vivo, human
Text: In addition to monitoring subjects for signs of harm, we hoped to detect signals of activity. […] For this preliminary study, our primary outcome of interest was Glasgow Outcome Scale Extended (GOSE) 30 days post-injury. […] Thirty days following each injury event, we assessed each patient's Glasgow Outcome Score Extended (GOSE) and Disability Rating Scale (DRS). Patients who were severely impaired were classified as “not testable”-a surrogate marker for a poor outcome. Reliability codes were used to record reasons for non-administration of a particular measure, such as physical impairment (e.g., hemiparesis) cognitive impairment (e.g., could not understand instructions), or intoxication. One-year outcomes will be reported at a later date. […] Our secondary aim was to look for signs of drug activity by assessing several measures of outcome. Our a priori primary measure of outcome was the Glasgow Outcome Scale-Extended ([…] et al. (1998) Journal of Neurotrauma 15(8):587-597). […] (1987) Journal of Neurosurgery 67(6):832-840) and 5) the Disability Rating Scale (DRS) (Hall et al. […] Variables determined to be independently associated with all-cause mortality or CNS related-death, such as iGCS (dichotomized into moderate versus severe), injury severity score and Marshall CT score were incorporated in a stepwise logistic regression analyses. […]

## CC(=O)[C@H]1CC[C@H]2[C@@H]3CCC4=CC(=O)CC[C@]4(C)[C@H]3CC[C@]12C [progesterone, pregn-4-ene-3,20-dione]
[1]; both
  maintenance infusion rate to achieve target concentration of 450±100 ng/mL: approximately 0.8 mg/kg/h
[1]; both, CL
  clearance: 28.8 mL/min/kg
[1]; both, terminal half-life
  half-life: 1.78 ± 1 h
[1]; female
  Vd: 1.33 L/kg
  concentration at 0 h: 2.86 ± 1.37 ng/mL
[1]; female, CL
  clearance: 31.3 mL/min/kg
[1]; male
  Vd: 1.62 L/kg
  concentration at 0 h: 2.53 ± 1.73 ng/mL
[1]; male, CL
  clearance: 27.7 mL/min/kg
[1]; male, iv
  clearance: 22.2 mL/min/kg
[2]
  stability of Intralipid solutions containing progesterone in 95% ethyl alcohol: ≥ 24 h
[2]; room temperature
  stability of solution of progesterone in 95% ethyl alcohol: up to 2 years
[3]
  solubility: soluble only in alcohol
[4]; vs control
  reduction in brain deaths: 60%
[4]; vs group B, p=0.0295 Fisher's exact test
  proportion of subjects experiencing brain death: significantly lower proportion
[5]; 30-day adverse event rate
  Death within 30 days: 13.0%
[5]; both, human, in vivo, 30 days
  Acute respiratory distress syndrome: 2.6%
  Cardiac Arrhythmia: 5.2%
  Central nervous system infection: 1.3%
  Cholestatic Jaundice: 6.5%
  Fever: 70.1%
  Gastrointestinal Bleed: 5.2%
  Hyperglycemia-non DM: 27.3%
  Hypertension: 11.7%
  Hypotension: 9.1%
  Hypothermia: 5.2%
  Hypoxemia: 11.7%
  Increase Liver Enzyme: 6.5%
  Phlebitis at Injection Site: 1.3%
  Rash or Hives: 2.6%
  Seizures: 5.2%
  Sepsis: 2.6%
  Shock: 2.6%
  Suspected Pneumonia: 11.7%
  Syndrome of inappropriate ADH: 1.3%
  Tachycardia: 24.7%
  Thromboembolic Disease: 3.9%
[5]; in vivo
  adverse events specifically ascribed to administration: two cases of superficial phlebitis at the IV site
  deep vein thrombosis: Three patients
  rise in mean temperature over the infusion interval, treatment by time interaction slope: −0.0055
  serious adverse events attributed to study drug: No serious adverse events were attributed to progesterone
[6]; first 4 days post-injury, subjects with monitors, not statistically significant
  mean intracranial pressure levels (ICPs) trend: remained stable
[6]; in vivo
  Mean Duration of Pressures Exceeding Threshold Values: CPP < 60: 6.9 h
  Mean Duration of Pressures Exceeding Threshold Values: ICP > 25: 5.0 h
  Mean Duration of Pressures Exceeding Threshold Values: MAP < 70: 2.5 h
  Mean Duration of Pressures Exceeding Threshold Values: Systolic BP < 90: 2.7 h
  Mean Frequency of Pressures Exceeding Threshold Values: CPP < 60, Rate/1000 consecutive readings: 92.9
  Mean Frequency of Pressures Exceeding Threshold Values: ICP > 25, Rate/1000 consecutive readings: 70.2
  Mean Frequency of Pressures Exceeding Threshold Values: MAP < 70, Rate/1000 consecutive readings: 29.5
  Mean Frequency of Pressures Exceeding Threshold Values: Systolic BP < 90, Rate/1000 consecutive readings: 32.1
  Percent of Patients with Clinical Values Exceeding the Threshold: CPP < 60: 48.7%
  Percent of Patients with Clinical Values Exceeding the Threshold: ICP > 25: 32.4%
  Percent of Patients with Clinical Values Exceeding the Threshold: MAP < 70: 29.0%
  Percent of Patients with Clinical Values Exceeding the Threshold: Systolic BP < 90: 29.0%
[6]; infusion day 0
  Cerebral Perfusion Pressure, mean: 70.3 mmHg
[6]; infusion day 1
  Cerebral Perfusion Pressure, mean: 73.4 mmHg
  Fluid Balance, mean: 767.9 + mls
[6]; infusion day 2
  Cerebral Perfusion Pressure, mean: 75.9 mmHg
  Fluid Balance, mean: 1189.5 + mls
[6]; infusion day 3
  Cerebral Perfusion Pressure, mean: 74.9 mmHg
  Fluid Balance, mean: 802.0 + mls
[6]; infusion day 4
  Cerebral Perfusion Pressure, mean: 73.8 mmHg
  Fluid Balance, mean: 818.7 + mls
[7]; Index GCS = 9-12
  Disability Rating Score: Total DRS, mean: 5
[7]; moderately brain-injured patients
  DRS scores vs placebo: significantly better DRS scores
